# pIC50: −log10 of the molar value. Where “and” joins values, the source holds several entries; their conditions need not be identical. Equal values may be shown once.
# Tested on: 817829-284-R-J1-PDC complex spheroid viability
# Assay: Anticancer human tumor 817829-284-R-J1-PDC patient-derived colon adenocarcinoma cell line growth inhibition [POLQ]
# Conditions: for viability, T/C: stronger effect = lower value
# Protocol: Multicellular complex tumor spheroid response to Polymerase (POL) inhibitors (novobiocin, ART-558, RP6685) in combination with a variety of drugs and investigational agents in selected tumor cell lines
# The POL inhibitors (novobiocin, ART-558, and RP6685) were evaluated both individually and in combination with standard of care and investigational anticancer small molecules within a complex spheroid model of solid tumors. . Complex spheroids include a stromal component modeled by human endothelial cells (HUVEC) and fibroblasts modeled by human mesenchymal stem cells (MSCs). The concentration ranges selected for each drug and investigational agent were based upon clinically achievable concentrations if the clinical Cmax of the agent was known.
# Compounds. The drugs and investigational agents: novobiocin (NSC847541), ART-558 (NSC835418), RP-6685 (NSC848927), peposertib (NSC802822), ceralasertib (NSC780249), elimusertib (NSC800525), camonsertib (NSC841442), AZD-1390 (NSC803789), olaparib (NSC753686), talazoparib (NSC767125), rucaparib (NSC756644), sotorasib (NSC818433), MRTX-1133 (NSC836407), SN-38 (NSC673596), topotecan (NSC609699), epotoside (NSC141540), doxorubicin (NSC123127), gemcitabine (NSC613327), 5-fluorouracil (NSC19893), paclitaxel (NSC125973), vemurafenib (NSC761431), MSA-2 (NSC828583), SN-011 (NSC837082), adavosertib (NSC754352), prexasertib (NSC758257), carboplatin (NSC241240) and oxaliplatin (NSC266046), were obtained from the National Cancer Institute (NCI) Developmental Therapeutics Program Chemical Repository (21). The FDA-approved anticancer drug set is available from the Developmental Therapeutics Program at https://dtp.cancer.gov/organization/dscb/obtaining/. […] The stock solutions were prepared in dimethyl sulfoxide (DMSO, Sigma-Aldrich, St. Louis, MO, cat. D2650), except for the platinum compounds which were prepared in saline (Quality Biological, Gaithersburg, MD, cat. 114-055-101), at 800-fold the tested concentration and stored at -70 degrees C prior to their use. All drugs and investigational agents were tested over a range starting from a high concentration at or near the clinical Cmax and decreasing in half-log increments. If the clinical Cmax for an agent had not been determined, the highest concentration tested was 10 microM, except for SN-38, which was tested at a high concentration of 1 microM.
# Cell Culture. All cells were maintained in an incubator at 37 degrees C and 5% CO2 with 95% humidity. The PDC lines were cultured according to standard operating procedures established by the NCI PDMR (https://pdmr.cancer.gov). Table 3 of the manuscript, lists the cell lines along with the number of the three cell types plated to form the mct-spheroids and media for tumor cell growth. After thawing, all PDC lines, except 997537-175-T-J1-PDC and 415267-285-R-J2-PDC, were cultured in Matrigel-coated flasks prepared with a working solution of 1X Ham's F-12 nutrient mix, without supplementation (Thermo Fisher Scientific, cat. 11765054), 100 U/mL penicillin-streptomycin (Thermo Fisher Scientific, cat. 15140122), and 2.5% Matrigel (Corning Inc., Corning, NY, cat. 354248) for the first three passages. The two PDC lines 997537-175-T-J1-PDC and 415267-285-R-J2-PDC were cultured on uncoated flasks. The 857933-349-R-J2-PDC line was cultured in 6C/Colon 1B media containing advanced DMEM/F-12 (Thermo Fisher Scientific, cat. 12634028), 10 mM HEPES (Thermo Fisher Scientific, cat. 15630080), 1X GlutaMAX supplement (Thermo Fisher Scientific, cat. 35050061), 0.1 mg/mL primocin (InvivoGen, San Diego, CA, cat. ant-pm-2), 10% defined fetal bovine serum, heat inactivated (HyClone Laboratories Inc., Logan, UT, cat. SH30070.03HI), 50% L-WRN conditioned media (ATCC, cat. CRL-3276), 1.25 mM N-Acetyl-L-cysteine (Sigma-Aldrich, cat. A9165), 10 mM nicotinamide (Sigma-Aldrich, cat. N0636), 1X B-27 supplement (Thermo Fisher Scientific, cat. 17504044), 1X N-2 supplement (Thermo Fisher Scientific, cat. […]
# 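Further: spheroids exposed to compounds for 7 days.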
# 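Wherever viability, T/C is given: 100% = DMSO vehicle-treated spheroids.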
smiles,measurement,setting,value
CC(=O)O[C@H]1C(=O)[C@@]2(C)[C@H]([C@H](OC(=O)c3ccccc3)[C@]3(O)C[C@H](OC(=O)[C@H](O)[C@@H](NC(=O)c4ccccc4)c4ccccc4)C(C)=C1C3(C)C)[C@]1(OC(C)=O)CO[C@@H]1C[C@@H]2O + Cc1cccc(N(C)C(=O)C2C(O)CCN2c2nc(C)cc(C(F)(F)F)c2C#N)c1,pIC50,"curve of first compound, second compound 0.0316 µM",> 8.02
same,pIC50,"curve of first compound, second compound 0.1 µM",> 8.02
same,pIC50,"curve of first compound, second compound 0.316 µM",> 8.02
same,pIC50,"curve of first compound, second compound 1 µM",> 8.02
same,pIC50,"curve of first compound, second compound 3.16 µM",> 8.02
same,pIC50,"curve of first compound, second compound 10 µM",> 8.02
same,"viability, T/C","second compound 0.0316 µM, first compound 0.00949 µM",4.71%
same,"viability, T/C","second compound 0.0316 µM, first compound 0.03 µM",4.06%
same,"viability, T/C","second compound 0.0316 µM, first compound 0.0949 µM",3.84%
same,"viability, T/C","second compound 0.0316 µM, first compound 0.3 µM",3.78%
same,"viability, T/C","second compound 0.0316 µM, first compound 0.949 µM",3.98%
same,"viability, T/C","second compound 0.0316 µM, first compound 3 µM",4.66%
same,"viability, T/C","second compound 0.1 µM, first compound 0.00949 µM",4.94%
same,"viability, T/C","second compound 0.1 µM, first compound 0.03 µM",4.36%
same,"viability, T/C","second compound 0.1 µM, first compound 0.0949 µM",3.84%
same,"viability, T/C","second compound 0.1 µM, first compound 0.3 µM",4.37%
same,"viability, T/C","second compound 0.1 µM, first compound 0.949 µM",4.32%
same,"viability, T/C","second compound 0.1 µM, first compound 3 µM",4.51%
same,"viability, T/C","second compound 0.316 µM, first compound 0.00949 µM",4.66%
same,"viability, T/C","second compound 0.316 µM, first compound 0.03 µM",4.72%
same,"viability, T/C","second compound 0.316 µM, first compound 0.0949 µM",4.39%
same,"viability, T/C","second compound 0.316 µM, first compound 0.3 µM",4.37%
same,"viability, T/C","second compound 0.316 µM, first compound 0.949 µM",4.24%
same,"viability, T/C","second compound 0.316 µM, first compound 3 µM",3.51%
same,"viability, T/C","second compound 1 µM, first compound 0.00949 µM",4.57%
same,"viability, T/C","second compound 1 µM, first compound 0.03 µM",8.02%
same,"viability, T/C","second compound 1 µM, first compound 0.0949 µM",4.15%
same,"viability, T/C","second compound 1 µM, first compound 0.3 µM",4.37%
same,"viability, T/C","second compound 1 µM, first compound 0.949 µM",4.04%
same,"viability, T/C","second compound 1 µM, first compound 3 µM",4.46%
same,"viability, T/C","second compound 3.16 µM, first compound 0.00949 µM",4.41%
same,"viability, T/C","second compound 3.16 µM, first compound 0.03 µM",3.99%
same,"viability, T/C","second compound 3.16 µM, first compound 0.0949 µM",4.51%
same,"viability, T/C","second compound 3.16 µM, first compound 0.3 µM",4.14%
same,"viability, T/C","second compound 3.16 µM, first compound 0.949 µM",3.93%
same,"viability, T/C","second compound 3.16 µM, first compound 3 µM",3.87%
same,"viability, T/C","second compound 10 µM, first compound 0.00949 µM",4.67%
same,"viability, T/C","second compound 10 µM, first compound 0.03 µM",3.97%
same,"viability, T/C","second compound 10 µM, first compound 0.0949 µM",4.2%
same,"viability, T/C","second compound 10 µM, first compound 0.3 µM",4.14%
same,"viability, T/C","second compound 10 µM, first compound 0.949 µM",4.11%
same,"viability, T/C","second compound 10 µM, first compound 3 µM",4.13%
COc1cccc2c1C(=O)c1c(O)c3c(c(O)c1C2=O)CC(O)(C(=O)CO)CC3OC1CC(N)C(O)C(C)O1 (stereo not given),"viability, T/C",compound 0.0316 µM,16.9% and 19.5% and 19.8%
same,"viability, T/C",compound 0.1 µM,16.4% and 18.4% and 91.1%
same,"viability, T/C",compound 0.316 µM,5.17% and 6.51% and 6.09%
same,"viability, T/C",compound 1 µM,1.01% and 0.37% and 0.7%
same,"viability, T/C",compound 3.16 µM,0.33% and 0.32% and 0.25%
same,"viability, T/C",compound 10 µM,0.58% and 0.63% and 0.52%
same,pIC50,curve of compound,> 7.50 and 6.94
Cn1ncnc1[C@H]1c2n[nH]c(=O)c3cc(F)cc(c23)N[C@@H]1c1ccc(F)cc1,"viability, T/C",compound 0.000316 µM,80.8% and 91.3% and 74.5%
same,"viability, T/C",compound 0.001 µM,64% and 85.5% and 71.1%
same,"viability, T/C",compound 0.00316 µM,54.7% and 74.7% and 71.7%
same,"viability, T/C",compound 0.01 µM,62.7% and 56.4% and 57.5%
same,"viability, T/C",compound 0.0316 µM,38.1% and 61.4% and 34%
same,"viability, T/C",compound 0.1 µM,29.1% and 35.4% and 36.5%
same,pIC50,curve of compound,7.93 and 7.43 and 7.83
CCc1cc2c(N3CCc4c(cc(Cn5ccnc5)cc4-c4cn(C)nc4C(F)(F)F)C3=O)ccnc2c(OC)n1,"viability, T/C",compound 0.0316 µM,101% and 91.9% and 80.3%
same,"viability, T/C",compound 0.1 µM,81% and 77.6% and 71.7%
same,"viability, T/C",compound 0.316 µM,88.4% and 77.1% and 66.4%
same,"viability, T/C",compound 1 µM,65.8% and 68.8% and 64.9%
same,"viability, T/C",compound 3.16 µM,54.2% and 59.5% and 53.1%
same,"viability, T/C",compound 10 µM,34.8% and 38% and 33.4%
same,pIC50,curve of compound,5.41 and 5.31 and 5.45
O=C(c1cc(Cc2n[nH]c(=O)c3ccccc23)ccc1F)N1CCN(C(=O)C2CC2)CC1,"viability, T/C",compound 10 µM,22.3% and 7.71% and 32.7%
O=c1[nH]cc(F)c(=O)[nH]1,"viability, T/C",compound 0.0316 µM,104% and 91.8% and 101%
same,"viability, T/C",compound 0.1 µM,104% and 98.7% and 75.8%
same,"viability, T/C",compound 0.316 µM,93% and 94.3% and 74.7%
same,"viability, T/C",compound 1 µM,69.7% and 67.1% and 72.8%
same,"viability, T/C",compound 3.16 µM,50.6% and 38.9% and 57.3%
same,"viability, T/C",compound 10 µM,44.5% and 29.5% and 45.3%
same,pIC50,curve of compound,5.46 and 5.71 and 5.12
CCCS(=O)(=O)Nc1ccc(F)c(C(=O)c2c[nH]c3ncc(-c4ccc(Cl)cc4)cc23)c1F,"viability, T/C",compound 0.0316 µM,89.8% and 97% and 86.7%
same,"viability, T/C",compound 0.1 µM,87% and 72.4% and 57%
same,"viability, T/C",compound 0.316 µM,66.1% and 86.6% and 80.9%
same,"viability, T/C",compound 1 µM,72.1% and 59.4% and 61%
same,"viability, T/C",compound 3.16 µM,55.4% and 56.3% and 59.4%
same,"viability, T/C",compound 10 µM,7.53% and 9.53% and 19.9%
same,pIC50,curve of compound,5.49 and 5.53 and 5.42
CC1COCCN1c1cc(C2(O)CC3CCC(C2)O3)c2cnn(-c3ccn[nH]3)c2n1 (stereo not given),"viability, T/C",compound 0.0316 µM,25.2% and 23.3% and 30.1%
same,"viability, T/C",compound 0.1 µM,8.33% and 10.7% and 8.37%
same,"viability, T/C",compound 0.316 µM,4.72% and 4.82% and 4.13%
same,"viability, T/C",compound 1 µM,3.5% and 3.16% and 3.44%
same,"viability, T/C",compound 3.16 µM,3.23% and 3.58% and 4.19%
same,"viability, T/C",compound 10 µM,2.41% and 1.97% and 3.04%
same,pIC50,curve of compound,> 7.50
